Publication PMC6150298, “Natural Deep Eutectic Solvents (NADES) to Enhance Berberine Absorption: An In Vivo Pharmacokinetic Study” (Molecules : A Journal of Synthetic Chemistry and Natural …, 2017)
Each block holds one compound with its values, some of them ahead of it.

What was measured:
[1] = Solubility of berberine in NADES and reference solvents (HPLC-DAD); format: physicochemical
Protocol: Samples were placed on a magnetic stirrer (Stuart, Bibby Scientific Ltd., Stone, Staffordshire, UK) at 22 °C for 1 h, then centrifuged for 21 min at 13,000 rpm with a 5415 R centrifuge (Eppendorf, Hamburg, Germany). For quantitative measurement of solubilized berberine, a portion (100 μL) of the clear supernatant obtained after centrifugation was diluted 1:5 (v/v) in ethanol.
For quantification, stock standard solution of berberine (100 μg/mL) was prepared dissolving the analytical standard in methanol using an ultrasonic bath. A calibration curve was obtained injecting standard solutions of berberine at different concentrations, namely 50, 25, 10, 5 and 1 μg/mL. The following calibration curve was obtained: […] (R^2 = 0.9997). The Limit of Quantification (LOQ) was 1 μg/mL.
For HPLC-DAD analysis, an Agilent series 1260 HPLC instrument (Agilent, Cernusco Sul Naviglio, MI, Italy) equipped with a quaternary pump, a diode-array detector, an auto sampler and a column oven compartment was used. Analyses were performed on Eclipse XDB C8 column (5 μm, 4.6 mm × 150 mm, Agilent). The mobile phase was (A) water–formic acid (99:1 v/v) and (B) acetonitrile. A gradient program was used as follows: 0 → 11th min: A:B (90:10) → A:B (0:100) 11 → 12th min: A:B (0:100) → A:B (0:100) 12 → 12, 10th min: A:B (0:100) → A:B (90:10) 12, 10 → 14th min: A:B (90:10) → A:B (90:10). The mobile phase flow rate was 1 mL/min and the injection volume was 10 μL. The chromatogram was recorded at 350 nm and spectral data for all peaks were obtained in the range of 190–400 nm. The retention time of berberine under these analysis conditions was 6.16 min.

[2] = design: method as in PMID 26092760; settings: rats, single oral administration of berberine 200 mg/kg; cited from earlier work
[3] = human subjects, single oral dose of 500 mg of berberine hydrochloride, cited from earlier work; for time after which the plasma level reaches a plateau: plateau persisted up to 24 h
[4] = system: rat; settings: cited from earlier work
[5] = system: mice; settings: cited from earlier work

solubility at 1 h ([1]; water, 22 °C): 2100 µg/mL
Compound: COc1ccc2cc3[n+](cc2c1OC)CCc1cc2c(cc1-3)OCO2 [berberine, Berberine]
total recovery of native compounds [2]: 22.83% | plasma levels [3]: lower than 0.1 nM | time after which the plasma level reaches a plateau [3]: one

Compound: COc1cc2c(cc1O)CC[n+]1cc3c(OC)c(OC)ccc3cc1-2 [jatrorrhizine]
plasma levels [3]: lower than 0.1 nM | time after which the plasma level reaches a plateau [3]: 2 h

Compound: CC(O)C(=O)O (centres unmarked) [lactic acid]
LD50 [4]: 3543 mg/kg

Compound: O=C(O)CC(O)C(=O)O (centres unmarked) [malic acid]
LD50 [4]: 1600 mg/kg

Compound: NC(N)=O [urea]
LD50 [5]: 11,000 mg/kg

Berberine Solubility at 22 °C [1]: 2750 ± 50 µg/mL
Compound: Ethanol

Berberine Solubility at 22 °C [1]: 2100 ± 50 µg/mL
Compound: Water
